Values quoted from earlier work as cited in patent US8821913B2, “Controlled releases system containing temozolomide” (Tasly Holding Group Co., Ltd., priority 2002, dated 2014).
Like-named read-outs stand apart in the source and are kept apart here.

Tests used:
[1] = mouse
[2] = phase I clinical trial

- half-life time ([1]; i.p.): 1.13 h
- half-life time ([1]; p.o.): 1.29 h
- half-life time [2]: 1.8 h
- time to reach maximum plasma concentration [2]: ≤ 0.7 h
Compound: Cn1nnc2c(C(N)=O)ncn2c1=O [TMZ, Temozolomide]
